Laboratory results from patent US5750826A, “Bradykinin B2 receptor modified transgenic non-human animals” (Merck & Co., Inc., priority 1996, dated 1998).
Where no end group is shown, it is not given here.

What was measured:
[1] = biological target: T1, human B2 bradykinin receptor (Homo sapiens, UniProt P30411); test: Competition binding against 100 pM [3H]BK at the cloned human B2 receptor (COS-7)
T1 construct: placing the entire B2 clone under the control of the CMV promoter; expressed in transfected cells
T1 sequence (P30411 1-364 isoform P30411-2): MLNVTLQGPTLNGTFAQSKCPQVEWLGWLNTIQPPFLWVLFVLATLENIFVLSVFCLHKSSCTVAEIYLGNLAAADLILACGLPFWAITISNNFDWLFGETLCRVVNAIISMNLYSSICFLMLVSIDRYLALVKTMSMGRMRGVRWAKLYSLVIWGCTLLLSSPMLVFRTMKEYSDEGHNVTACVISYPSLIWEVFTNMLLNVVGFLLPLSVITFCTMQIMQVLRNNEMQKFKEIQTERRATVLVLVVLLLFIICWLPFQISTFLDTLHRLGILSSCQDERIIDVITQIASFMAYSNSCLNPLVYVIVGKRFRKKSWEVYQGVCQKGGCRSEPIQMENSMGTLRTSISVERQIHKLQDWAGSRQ
Experimental: (§1) In order to enable expression of the cDNA that encodes for the B2 bradykinin receptor, COS-7 cells were transfected using LIPOFECTIN (BRL, Gaithersburg, Md.) with 50ug/10^7 cells of the B2 receptor cDNA subcloned into the eukaryotic expression vector pcDNA I-Neo (Invitrogen). Cells were then harvested after 72 hours and the membranes containing the expressed receptor protein were prepared by scraping the cells in phosphate buffered saline solution and centrifuging for ten minutes at 500× g. The cell pellet was then resuspended and homogenized with a Polytron in 20 mM N-tris(hydroxymethyl)methyl-2-aminoethane sulfonic acid (TES,pH 6.8 at room temperature) buffer containing 1 mM 1, 10 phenanthroline. The homogenate was then centrifuged for ten minutes at 500 × g. The final membrane pellet was resuspended in assay buffer (TES plus 0.1% protease free bovine serum albumin, 5 uM MK-422 (enalaprilat; Gross et al., 1981) and 140 ug/ml bacitracin using a motor-driven teflon-glass tissue homogenizer. Protein determination was performed by the method of Bradford using bovine IgG as the standard. See Bradford, M.A. Anal. Biochem. 72, 248-254 (1976).
Binding assays were then performed to determine receptor antagonist or agonist interaction. The assays utilized in the instant invention follow the method of Manning et al., J. Pharmacol. Exp. Ther., 237, 504-512 (1986). […] (BRANDEL, Gaithersburg, Md.). The tubes were rinsed two times with 4 ml ice-cold […] and the filter bound radioactivity was quantitated by liquid scintillation counting. […] The competition and saturation experiments were analyzed using the EBDA program of McPherson. See McPherson, G.A. J Pharmacol. Methods 14, 213-218 (1985).

[2] = test system: mock transfected COS-7 cells; test: Binding of BK to membranes of mock transfected COS-7 cells; conditions: membranes from mock transfected COS-7 cells
Experimental: as §1, with “The final membrane pellet was resuspended in assay buffer (TES plus 0.1% protease free bovine serum albumin, 5 uM MK-422 (enalaprilat; Gross et al., 1981) and 140 ug/ml bacitracin using a motor-driven teflon-glass tissue homogenizer. Protein determination was performed by the method of Bradford using bovine IgG as the standard. See Bradford, M.A. Anal. Biochem. 72, 248-254 (1976).” left out
Binding assays were then performed to determine receptor antagonist or agonist interaction. […] The tubes were rinsed two times with 4 ml ice-cold […] and the filter bound radioactivity was quantitated by liquid scintillation counting. […] The competition and saturation experiments were analyzed using the EBDA program of McPherson. […]

[3] = biological target: T2, mouse B2 bradykinin receptor (Mus musculus, UniProt P32299); test: Competition binding using 100 pM [3H]BK at the expressed mouse B2 bradykinin receptor; conditions: expressed mouse B2 receptor, 100 pM [3H]BK
T2 construct: The PCR product begins 99 bp upstream of the initiator methionine codon and ends 49 bp downstream of the stop codon; expressed in transfected cells; host or cells: COS-7 (transient), pcDNAI-Neo
T2 sequence (P32299 1-366 isoform P32299-2): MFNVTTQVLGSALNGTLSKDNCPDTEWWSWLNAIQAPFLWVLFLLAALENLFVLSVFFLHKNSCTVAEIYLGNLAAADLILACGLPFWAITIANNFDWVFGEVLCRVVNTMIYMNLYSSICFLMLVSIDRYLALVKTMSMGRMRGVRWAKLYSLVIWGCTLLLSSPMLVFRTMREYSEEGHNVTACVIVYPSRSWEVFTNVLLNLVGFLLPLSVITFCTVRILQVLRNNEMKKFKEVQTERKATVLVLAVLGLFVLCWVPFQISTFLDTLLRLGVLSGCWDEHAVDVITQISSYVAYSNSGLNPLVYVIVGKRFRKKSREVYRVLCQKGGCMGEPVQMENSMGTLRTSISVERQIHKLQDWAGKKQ
Experimental: Binding assays were then performed to determine receptor antagonist or agonist interaction. The assays utilized in the instant invention follow the method of Manning et al., J. Pharmacol. Exp. Ther., 237, 504-512 (1986). [^3 H]BK at various concentrations was incubated for 60 minutes at 25° C. with approximately 50ug membrane protein from COS-7 cells in a volume of 1 ml. The assay was terminated by filtration over Whatman GF/B filters presoaked for 3 hours in 0.1 % polyethyleneimine using a BRANDEL M-24 CELL […] (BRANDEL, Gaithersburg, Md.). The tubes were rinsed two times with 4 ml ice-cold […] and the filter bound radioactivity was quantitated by liquid scintillation counting. Nonspecific binding was determined by performing incubation in the presence of 1 uM BK and generally represents less than 5% of the total binding at 100pM ^3 H]BK. Competition binding experiments, in the presence of 100pM[^3 H]BK, were performed with varying concentrations of the test compound(s). The competition and saturation experiments were analyzed using the EBDA program of McPherson. See McPherson, G.A. J Pharmacol. Methods 14, 213-218 (1985).
To verify the pharmacological properties of the mouse bradykinin B2 receptor the coding sequence of the mouse B2 bradykinin receptor was isolated by PCR (Perkin Elmer/Cetus) using a Techne thermocycler with the template being the EcoR I by Hind III genomic fragment in pSP72 and the 5' primer 5'-[…]-3' (SEQ.ID.NO.:8) and the 3' primer 5'- […]-3' (SEQ.ID.NO.:9). The PCR product was subcloned into the Hind III and Xba I sites of the eukaryotic expression vector pcDNAI-Neo (Invitrogen). The PCR product begins 99 bp upstream of the initiator methionine codon and ends 49 bp downstream of the stop codon. The DNA sequence analysis using Sequenase (US Biochemical) of the subcloned PCR product confirmed that the sequence was identical to that in the original genomic fragment.

rat vas deferens = conditions: cited from earlier work
guinea pig ileum mucosa = conditions: nanomolar concentrations, serosal surface; cited from earlier work
Swiss 3T3 fibroblasts = conditions: cited from earlier work
[4] = test system: CPAE cells (bovine pulmonary artery endothelial cells); conditions: cited from earlier work
B1 receptor = conditions: cited from earlier work
B2 receptor = conditions: cited from earlier work

Compound | specificity of binding (rank order) [1] | BK specific binding sites [2] | affinity [3] | contraction of smooth muscle / muscle tone (rat vas deferens; musculotropic/postjunctional action) | magnitude of the muscular response to electrically driven twitches (rat vas deferens; neurogenic/presynaptic effect) | transepithelial potential difference (p.d.) and short circuit current (ISC) (guinea pig ileum mucosa) | phospholipase C mediated InsP formation and PGE-2 synthesis (Swiss 3T3 fibroblasts) | activity of phosphatidylcholine-specific PLC [4] | inhibition at 10 µM ([1]; 10 uM, human B2 receptor) [%] | IC50 ([3]; read-out: IC50) [µM] | pre- or postsynaptic BK like responses (rat vas deferens; rat vas deferens) | potency as B1 receptor agonist relative to BK (B1 receptor) | activity at B2 receptors (B2 receptor)
RPPGFSPFR [BK] | BK>lys-BK>met-lys-BK | did not contain any detectable BK specific binding sites | high (subnanomolar) affinity | contracted the smooth muscle generating an increased muscle tone | potentiated | rapidly increased | stimulated | stimulates | – | – | – | – | –
N=C(N)NCCC[C@H](N)C(=O)N1CCC[C@H]1C(=O)N1CCC[C@H]1C(=O)NCC(=O)N[C@@H](Cc1ccccc1)C(=O)N[C@@H](CO)C(=O)N1CCC[C@H]1C(=O)N[C@@H](Cc1ccccc1)C(=O)O [Des-Arg^9 BK] | – | – | very low affinity | – | – | – | – | – | 18 | 6 | inactive | higher potency than BK | inactive at B2 receptors
